According to US20190209472A1, “FORMULATIONS FOR DERMAL DELIVERY OF POLYMER CONJUGATES OF INDOLOCARBAZOLE COMPOUNDS WITH REDUCED EXPOSURE” (Sienna Biopharmaceuticals, Inc., priority 2017, published 2019):
Where two headings read alike, the source gives them in different places.

Tests used:
[1] = tested on: lesions of psoriasis vulgaris
From the text: This was a Phase I, single-center, randomized, double-blind, placebo-controlled study in male and female patients with stable psoriasis vulgaris aged >18 and <71 years. Sixteen patients were enrolled in 2 treatment groups. […] Patients attended a screening visit within 21 days prior to Day 1. Patients were then admitted to the CPU in the afternoon of Day −1 and remained resident in the CPU until the morning of Day 8. Patients attended a follow-up visit 7 to 10 days after the last treatment administration on Day 7.
The ointment was applied by the CPU staff, using a spatula and finger cot.
Physicians Global Assessment (PGA) scores were assessed at screening, Day 1, Day 7 and at follow-up. Digital photographs of the application sites were also taken on admission to the CPU, Day 7 and at follow-up.

TrkA kinase = TrkA kinase (Homo sapiens, UniProt P04629)
TrkA kinase, sequence (P04629 33-796): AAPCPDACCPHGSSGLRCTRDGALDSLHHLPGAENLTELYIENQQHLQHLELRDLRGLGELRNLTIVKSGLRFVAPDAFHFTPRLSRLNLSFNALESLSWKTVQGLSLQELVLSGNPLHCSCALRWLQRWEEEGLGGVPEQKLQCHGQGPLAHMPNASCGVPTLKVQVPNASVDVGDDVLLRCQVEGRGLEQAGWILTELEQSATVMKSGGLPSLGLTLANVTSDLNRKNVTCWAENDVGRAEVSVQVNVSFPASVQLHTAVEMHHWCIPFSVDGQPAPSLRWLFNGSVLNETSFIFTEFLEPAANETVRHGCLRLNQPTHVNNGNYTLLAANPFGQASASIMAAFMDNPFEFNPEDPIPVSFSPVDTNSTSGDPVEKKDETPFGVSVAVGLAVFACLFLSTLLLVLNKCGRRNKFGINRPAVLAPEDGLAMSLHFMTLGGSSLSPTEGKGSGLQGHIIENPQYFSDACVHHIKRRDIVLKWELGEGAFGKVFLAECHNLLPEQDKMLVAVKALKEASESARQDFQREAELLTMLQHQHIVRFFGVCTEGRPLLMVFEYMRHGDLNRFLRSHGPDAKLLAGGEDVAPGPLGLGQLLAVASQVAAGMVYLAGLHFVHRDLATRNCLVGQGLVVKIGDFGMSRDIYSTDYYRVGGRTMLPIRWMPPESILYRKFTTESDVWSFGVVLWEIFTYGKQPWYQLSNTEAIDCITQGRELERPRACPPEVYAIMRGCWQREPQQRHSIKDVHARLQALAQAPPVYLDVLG

(9S, 10R, 12R)-10-(3′-mPEG2000-1′,3′-oxazolidine-2′,4′-dione)-2,3,9,10,11,12-hexahydro-9-methyl-1-oxo-9,12-epoxy-1H-diindolo[1,2,3-fg:3′,2′,1′-k,l]pyrrolo[3,4-i][1,6] benzodiazocine] [CT327]
PGA Scaling 3: MODERATE, COARSE SCALE PREDOMINATES, patients (%) ([1]; Plaque 2, DAY 1, N = 12): (8.3%)
PGA Scaling 4: MARKED, THICK, NON-TENACIOUS SCALE DOMINATES, patients (%) ([1]; Plaque 2, DAY 1, N = 12): (8.3%)
Physician Static Global Score 2: MILD, patients (%) ([1]; Plaque 2, DAY 1, N = 12): (25.0%)
Physician Static Global Score 3: MODERATE, patients (%) ([1]; Plaque 2, DAY 1, N = 12): (8.3%)
PGA Erythma 2: LIGHT RED COLOURATION, patients (%) ([1]; Plaque 2, DAY 7, N = 12): (25.0%)
PGA Erythma 3: MODERATE RED COLOURATION, patients (%) ([1]; Plaque 2, DAY 7, N = 12): (8.3%)
PGA Induration 1: MINIMAL PLAQUE ELEVATION, =0.25 MM, patients (%) ([1]; Plaque 2, DAY 7, N = 12): (25.0%)
PGA Induration 2: MILD PLAQUE ELEVATION, =0.5 MM, patients (%) ([1]; Plaque 2, DAY 7, N = 12): (8.3%)
PGA Scaling 1: MINIMAL, OCCASIONAL FINE SCALE OVER LESS THAN 5% OF THE LESION, patients (%) ([1]; Plaque 2, DAY 7, N = 12): (16.7%)
PGA Scaling 2: MILD, FINE SCALE DOMINATES, patients (%) ([1]; Plaque 2, DAY 7, N = 12): (16.7%)
Physician Static Global Score 1: MINIMAL, patients (%) ([1]; Plaque 2, DAY 7, N = 12): (8.3%)
Physician Static Global Score 2: MILD, patients (%) ([1]; Plaque 2, DAY 7, N = 12): (25.0%)
PGA Erythma 2: LIGHT RED COLOURATION, patients (%) ([1]; Plaque 2, FOLLOW-UP, N = 12): (33.3%)
PGA Induration 1: MINIMAL PLAQUE ELEVATION, =0.25 MM, patients (%) ([1]; Plaque 2, FOLLOW-UP, N = 12): (8.3%)
PGA Induration 2: MILD PLAQUE ELEVATION, =0.5 MM, patients (%) ([1]; Plaque 2, FOLLOW-UP, N = 12): (25.0%)
PGA Scaling 1: MINIMAL, OCCASIONAL FINE SCALE OVER LESS THAN 5% OF THE LESION, patients (%) ([1]; Plaque 2, FOLLOW-UP, N = 12): (8.3%)
PGA Scaling 2: MILD, FINE SCALE DOMINATES, patients (%) ([1]; Plaque 2, FOLLOW-UP, N = 12): (25.0%)
Physician Static Global Score 2: MILD, patients (%) ([1]; Plaque 2, FOLLOW-UP, N = 12): (33.3%)
PGA Erythma 2: LIGHT RED COLOURATION, patients (%) ([1]; Plaque 2, SCREENING, N = 12): (33.3%)
PGA Erythma 3: MODERATE RED COLOURATION, patients (%) ([1]; Plaque 2, SCREENING, N = 12): (25.0%)
PGA Induration 1: MINIMAL PLAQUE ELEVATION, =0.25 MM, patients (%) ([1]; Plaque 2, SCREENING, N = 12): (8.3%)
PGA Induration 2: MILD PLAQUE ELEVATION, =0.5 MM, patients (%) ([1]; Plaque 2, SCREENING, N = 12): (33.3%)
PGA Induration 3: MODERATE PLAQUE ELEVATION, =0.75 MM, patients (%) ([1]; Plaque 2, SCREENING, N = 12): (8.3%)
PGA Induration 4: MARKED PLAQUE ELEVATION, =1 MM, patients (%) ([1]; Plaque 2, SCREENING, N = 12): (8.3%)
PGA Scaling 2: MILD, FINE SCALE DOMINATES, patients (%) ([1]; Plaque 2, SCREENING, N = 12): (16.7%)
PGA Scaling 3: MODERATE, COARSE SCALE PREDOMINATES, patients (%) ([1]; Plaque 2, SCREENING, N = 12): (33.3%)
PGA Scaling 4: MARKED, THICK, NON-TENACIOUS SCALE DOMINATES, patients (%) ([1]; Plaque 2, SCREENING, N = 12): (8.3%)
Physician Static Global Score 2: MILD, patients (%) ([1]; Plaque 2, SCREENING, N = 12): (33.3%)
Physician Static Global Score 3: MODERATE, patients (%) ([1]; Plaque 2, SCREENING, N = 12): (16.7%)
Physician Static Global Score 4: MARKED, patients (%) ([1]; Plaque 2, SCREENING, N = 12): (8.3%)
PGA Erythma 2: LIGHT RED COLOURATION, patients (%) ([1]; Plaque 3, DAY 1, N = 12): (16.7%)
PGA Induration 2: MILD PLAQUE ELEVATION, =0.5 MM, patients (%) ([1]; Plaque 3, DAY 1, N = 12): (8.3%)
PGA Induration 3: MODERATE PLAQUE ELEVATION, =0.75 MM, patients (%) ([1]; Plaque 3, DAY 1, N = 12): (8.3%)
PGA Scaling 2: MILD, FINE SCALE DOMINATES, patients (%) ([1]; Plaque 3, DAY 1, N = 12): (8.3%)
PGA Scaling 4: MARKED, THICK, NON-TENACIOUS SCALE DOMINATES, patients (%) ([1]; Plaque 3, DAY 1, N = 12): (8.3%)
Physician Static Global Score 2: MILD, patients (%) ([1]; Plaque 3, DAY 1, N = 12): (8.3%)
Physician Static Global Score 3: MODERATE, patients (%) ([1]; Plaque 3, DAY 1, N = 12): (8.3%)
PGA Erythma 2: LIGHT RED COLOURATION, patients (%) ([1]; Plaque 3, DAY 7, N = 12): (8.3%)
PGA Erythma 3: MODERATE RED COLOURATION, patients (%) ([1]; Plaque 3, DAY 7, N = 12): (8.3%)
PGA Induration 1: MINIMAL PLAQUE ELEVATION, =0.25 MM, patients (%) ([1]; Plaque 3, DAY 7, N = 12): (16.7%)
PGA Scaling 2: MILD, FINE SCALE DOMINATES, patients (%) ([1]; Plaque 3, DAY 7, N = 12): (16.7%)
Physician Static Global Score 2: MILD, patients (%) ([1]; Plaque 3, DAY 7, N = 12): (16.7%)
PGA Erythma 2: LIGHT RED COLOURATION, patients (%) ([1]; Plaque 3, FOLLOW-UP, N = 12): (16.7%)
PGA Induration 1: MINIMAL PLAQUE ELEVATION, =0.25 MM, patients (%) ([1]; Plaque 3, FOLLOW-UP, N = 12): (8.3%)
PGA Induration 2: MILD PLAQUE ELEVATION, =0.5 MM, patients (%) ([1]; Plaque 3, FOLLOW-UP, N = 12): (8.3%)
PGA Scaling 2: MILD, FINE SCALE DOMINATES, patients (%) ([1]; Plaque 3, FOLLOW-UP, N = 12): (16.7%)
Physician Static Global Score 2: MILD, patients (%) ([1]; Plaque 3, FOLLOW-UP, N = 12): (16.7%)
PGA Erythma 2: LIGHT RED COLOURATION, patients (%) ([1]; Plaque 3, SCREENING, N = 12): (8.3%)
PGA Erythma 3: MODERATE RED COLOURATION, patients (%) ([1]; Plaque 3, SCREENING, N = 12): (16.7%)
PGA Induration 2: MILD PLAQUE ELEVATION, =0.5 MM, patients (%) ([1]; Plaque 3, SCREENING, N = 12): (8.3%)
PGA Induration 3: MODERATE PLAQUE ELEVATION, =0.75 MM, patients (%) ([1]; Plaque 3, SCREENING, N = 12): (8.3%)
PGA Induration 4: MARKED PLAQUE ELEVATION, =1 MM, patients (%) ([1]; Plaque 3, SCREENING, N = 12): (8.3%)
PGA Scaling 3: MODERATE, COARSE SCALE PREDOMINATES, patients (%) ([1]; Plaque 3, SCREENING, N = 12): (16.7%)
PGA Scaling 4: MARKED, THICK, NON-TENACIOUS SCALE DOMINATES, patients (%) ([1]; Plaque 3, SCREENING, N = 12): (8.3%)
Physician Static Global Score 2: MILD, patients (%) ([1]; Plaque 3, SCREENING, N = 12): (8.3%)
Physician Static Global Score 3: MODERATE, patients (%) ([1]; Plaque 3, SCREENING, N = 12): (8.3%)
Physician Static Global Score 4: MARKED, patients (%) ([1]; Plaque 3, SCREENING, N = 12): (8.3%)
Inhibition of TrkA kinase (TrkA kinase): inhibitor of TrkA kinase at nanomolar levels
